As a reminder, the inhibition is the relative decrease from the control value, in per cent.

The source of these data is patent EP0452101B1, “Spiro bridged and unbridged heterocyclic compounds” (ISRAEL INSTITUTE FOR BIOLOGICAL RESEARCH, priority 1990, dated 1991).

The test system of data set [1] is Male white mice of the CD-1 strain. Put plainly: Pharmacodynamic profile and general toxicity, Part B (signs, mortality, LD50). Particulars: Table 10. It counts as in vivo. From the text:
Male white mice of the CD-1 strain (Charles River, UK), within the body weight range of 18-26 g, were used throughout this study, carried out on AF123, AF125 and AF125(N).
Furthermore, these initial trials clearly established that the major signs of reactions to treatment consisted primarily of signs characteristic for potential cholinomimetic activity of the test material, such as tremors, salivation, lacrimation, diarrhea, analgesia, hypothermia and vasodilation. […]

Data set [2] has as its target T1, M1 muscarinic receptor (Rattus norvegicus, UniProt P08482).
T1 sequence (P08482 1-460): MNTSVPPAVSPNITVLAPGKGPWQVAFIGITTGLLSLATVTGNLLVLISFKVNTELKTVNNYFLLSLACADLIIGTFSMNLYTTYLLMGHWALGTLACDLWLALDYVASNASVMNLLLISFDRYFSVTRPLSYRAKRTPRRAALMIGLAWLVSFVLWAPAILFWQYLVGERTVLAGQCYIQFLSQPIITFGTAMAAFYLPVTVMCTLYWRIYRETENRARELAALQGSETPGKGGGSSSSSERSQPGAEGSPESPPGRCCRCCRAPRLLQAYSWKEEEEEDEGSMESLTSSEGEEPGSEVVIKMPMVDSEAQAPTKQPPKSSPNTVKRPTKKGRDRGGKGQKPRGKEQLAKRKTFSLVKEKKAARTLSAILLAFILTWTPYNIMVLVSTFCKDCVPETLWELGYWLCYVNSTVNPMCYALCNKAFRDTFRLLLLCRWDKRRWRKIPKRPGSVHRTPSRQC
Briefly: Displacement of 3H-PZ from rat cerebral cortex, 10 mM phosphate buffer. It counts as binding. Also noted: from tissue; host or cells: rat cerebral cortex homogenates. Particulars: for % H / Ki: cortex, Table 4; for Ki: read-out: 3H-PZ-Binding KH (a).

Data set [3] concerns the target T2, M2 muscarinic receptors (Rattus norvegicus, UniProt P10980).
T2 construct: displacing from rat brain homogenates, cerebellum or frontal cortex; from tissue; host or cells: rat cerebellum homogenates
T2 sequence (P10980 1-466): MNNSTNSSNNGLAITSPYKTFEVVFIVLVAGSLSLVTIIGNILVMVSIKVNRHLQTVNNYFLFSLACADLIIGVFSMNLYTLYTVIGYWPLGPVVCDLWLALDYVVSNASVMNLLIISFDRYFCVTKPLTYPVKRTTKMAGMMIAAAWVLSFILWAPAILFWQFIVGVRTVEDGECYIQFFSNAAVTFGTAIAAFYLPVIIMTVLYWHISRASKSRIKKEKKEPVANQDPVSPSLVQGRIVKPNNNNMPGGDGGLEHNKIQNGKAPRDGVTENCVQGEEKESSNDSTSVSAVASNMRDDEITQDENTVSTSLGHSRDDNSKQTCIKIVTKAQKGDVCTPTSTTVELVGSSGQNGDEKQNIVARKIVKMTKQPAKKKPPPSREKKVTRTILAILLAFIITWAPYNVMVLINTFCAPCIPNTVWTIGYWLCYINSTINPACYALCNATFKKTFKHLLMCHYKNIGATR
Briefly: Displacement of 3H-QNB from rat cerebellum, 50 mM phosphate buffer. Particulars: cerebellum. It counts as binding.

Data set [4] in a line: Chemical stability (thermal, aqueous solution). It counts as physicochemical. Particulars: free base, monitored with 1H-NMR. From the text: Most of these compounds are relatively stable. […] Its chemical behaviour resembles that of known 2-oxazoline derivatives. […] The formation of the decomposition products can be monitored with ^1H-NMR by inspection at two regions δ 3.3-3.5 (appearance of two doublets) and 1.9-2.0 ppm (appearance of two additional singlets).
The expected decomposition pattern (when e.g., X is O and Y is N) involves opening of the oxazoline ring to form both amide and ester as shown in Scheme E, in which the quinuclidine-derived compounds are depicted illustratively. The formation of two new singlets at δ 1.9-2.0 ppm as expected for R = Me of these two structures are in agreement with this supposition. [drawing 32]
Ring opening is much faster in the presence of dilute hydrochloric acid. […] The tendency to decomposition of such salts complicates the optical separation of compounds such as AF125 and AF123. However, this problem can be overcome by using the method described for the optical separation of the enantiomers of AF125, or alternatively the amino-alcohols such as 3-aminomethylquinuclidin-3-ol can be resolved and the separated enantiomers can then be cyclized using an ester or imidate as already described. In yet another alternative the N-acyl derivatives of (e.g.) 3-aminomethylquinuclidin-3-ol can be resolved and the separated enantiomers can then be cyclized per se as shown in Scheme K: [drawing 33] […]

Data set [5] concerns the target T1, M1 muscarinic receptor. Briefly: Displacement of 3H-QNB from rat cerebral cortex, 50 mM phosphate buffer. Particulars: cortex, Table 5. It is filed as binding. (Displacement assays read how much labelled ligand stays bound in the presence of the test substance.)
Data set [6] concerns muscarinic receptors. Briefly: (-)3H-QNB binding to rat cerebral cortex homogenates with and without Cu++ treatment.
For data set [7], the system named is CA1 neurons in the hippocampal slice. Briefly: Electrophysiological evaluation in rat hippocampal slices. On the procedure:
In general terms the effects of microdrops of AF150, ACh and PZ were applied to rat hippocampal cells recorded intracellularly. The exact concentrations of the drug at the receptor sites are not known, using this method. However, this method has an advantage over the perfusion method, in that it gives a more correct picture from the electrophysiological point of view (Segal, loc cit).
Intracellular responses to AF150 of CA1 neurons in the hippocampal slice were recorded, using the method of Segal. Small hyperpolarizing current pulses (current traces not shown) were alternated with stimulation of the Schaffer-commissural afferents producing postsynaptic potentials.

Data set [8] addresses T1, M1 muscarinic receptor. Put plainly: Displacement of 3H-PZ from cortical binding sites, Tris/Mn buffer, with and without GppNHp. The arrangement: from tissue; host or cells: rat cerebral cortex homogenates. An excerpt:
The binding of agonists to M1 muscarinic receptors and the effect of guanylyl imidophosphate (GppNHp). Agonists are known to be coupled with guanine nucleotide binding proteins (G proteins).
Non-hydrolyzable guanine nucleotides such as GppNHp dissociate the G protein from the receptor and decrease the affinity of the receptor for agonists but not for antagonists. […] Molec.
Under these conditions agonists of high efficacy ("full agonists") bind directly to the M1 receptor subtype with two affinities. […] The ratio of low and high affinities (KL/KH) of the M1 receptor may predict the relative efficacies of agonists to activate putative M1 receptor-mediated second messenger systems.
KH, KL, %H and %L are the apparent inhibition constants of the tested ligands for the high and low affinity sites, respectively. G is GppNHp (guanylyl imidodiphosphate), and was used in 0.1 mM concentration. Displacement of ^3H-PZ from cortical binding sites was performed in Tris/Mn buffer (pH 7.4) for one hour at 25°C; the buffer included 1 mM EDTA and 2mM Mn^++ ions. […] The binding data were analyzed using a GraphPAD program and were fitted to one or two components. Values are means from 1-3 experiments carried out in triplicates.

For data set [9], the target named is T3, m3 subtype (SK-N-SH cells) (Homo sapiens, UniProt P20309).
T3 construct: endogenous in cells; host or cells: SK-N-SH human neuroblastoma cells
Put plainly: PI hydrolysis in SK-N-SH neuroblastoma cells. It is filed as cell-based. On the procedure: (§1) The new compounds AF150, AF151, AF150(S) and AF125 were assayed for their ability to stimulate PI in CHO cells transfected with m1 and m3 receptors, respectively (Buck and Fraser, loc cit), and in cultured human neuroblastoma cells, line SK-N-SH, which express mainly the m3 subtype, but not the m1 subtype (Pinkas-Kramarski et al, Neurosci. Lett. 188: 335-340, 1990; Luthin et al Mol. Pharmacol. 34: 327-333, 1988). These compounds were also assayed on cultured PC12 cells which express mainly m4 subtype receptors and are coupled to inhibition of AC activity (Pinkas-Kramarski et al, loc cit).
(§2) Stimulation of PI breakdown was assayed using the method described by Stein et al (EMBO J. 7: 3031-3035, 1988), and modulation of AC activity was assayed by the method of Stein et al, loc cit and Pinkas-Kramarski et al (FEBS Lett., 239: 174-178, 1988). […]

The target of data set [10] is m3 receptors (Rattus norvegicus, UniProt P08483). Briefly: PI hydrolysis in CHO cells transfected with m3 receptors. It is filed as cell-based. Particulars: CHO m3; tested at 1mM. On the procedure:
as §1, §2

Data set [11] deals with T4, m1 receptors (Rattus norvegicus, UniProt P08482).
T4 construct: expressed in transfected cells; host or cells: CHO cells
T4 sequence (P08482 1-460): T1 sequence (P08482 1-460)
Put plainly: PI hydrolysis in CHO cells transfected with m1 receptors. It counts as cell-based.

Data set [12] concerns the target T5, m4 subtype receptors (PC12 cells) (Rattus norvegicus, UniProt P08485).
T5 construct: endogenous in cells; host or cells: PC12 cells
T5 sequence (P08485 1-478): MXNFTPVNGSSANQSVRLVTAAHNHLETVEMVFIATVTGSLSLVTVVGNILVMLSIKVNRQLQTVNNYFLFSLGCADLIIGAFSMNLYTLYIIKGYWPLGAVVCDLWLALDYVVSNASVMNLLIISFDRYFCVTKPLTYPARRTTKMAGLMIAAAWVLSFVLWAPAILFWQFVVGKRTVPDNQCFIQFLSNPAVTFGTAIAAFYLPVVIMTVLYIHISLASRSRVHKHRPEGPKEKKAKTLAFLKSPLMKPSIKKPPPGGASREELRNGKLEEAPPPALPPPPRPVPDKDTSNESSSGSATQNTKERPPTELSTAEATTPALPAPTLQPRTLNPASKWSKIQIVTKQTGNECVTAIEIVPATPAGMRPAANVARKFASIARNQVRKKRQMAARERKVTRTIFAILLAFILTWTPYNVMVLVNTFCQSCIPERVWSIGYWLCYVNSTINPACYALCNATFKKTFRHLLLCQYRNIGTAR
Put plainly: Inhibition of adenylate cyclase activity in PC12 cells. It is filed as cell-based. On the procedure: as §1, §2

[13] abbreviates: 400 mg/kg p.os, animals affected/treated.

T3 sequence (P20309 whole entry): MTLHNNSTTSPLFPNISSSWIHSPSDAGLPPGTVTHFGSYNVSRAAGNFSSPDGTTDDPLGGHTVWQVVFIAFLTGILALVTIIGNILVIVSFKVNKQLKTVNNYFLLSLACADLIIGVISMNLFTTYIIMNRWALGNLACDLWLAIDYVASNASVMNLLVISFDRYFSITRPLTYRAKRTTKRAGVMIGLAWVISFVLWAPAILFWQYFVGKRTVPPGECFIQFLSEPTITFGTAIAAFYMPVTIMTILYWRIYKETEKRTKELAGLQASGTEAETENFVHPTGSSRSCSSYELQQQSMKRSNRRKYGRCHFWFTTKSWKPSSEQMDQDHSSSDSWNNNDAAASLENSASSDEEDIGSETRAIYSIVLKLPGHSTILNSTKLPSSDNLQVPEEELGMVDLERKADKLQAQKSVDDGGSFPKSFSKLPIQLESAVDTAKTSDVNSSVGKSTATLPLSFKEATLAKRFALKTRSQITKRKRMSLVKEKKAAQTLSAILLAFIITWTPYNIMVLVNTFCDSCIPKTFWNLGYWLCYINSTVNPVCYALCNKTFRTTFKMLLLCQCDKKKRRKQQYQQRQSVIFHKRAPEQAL
Sequence of m3 receptors (P08483 whole entry): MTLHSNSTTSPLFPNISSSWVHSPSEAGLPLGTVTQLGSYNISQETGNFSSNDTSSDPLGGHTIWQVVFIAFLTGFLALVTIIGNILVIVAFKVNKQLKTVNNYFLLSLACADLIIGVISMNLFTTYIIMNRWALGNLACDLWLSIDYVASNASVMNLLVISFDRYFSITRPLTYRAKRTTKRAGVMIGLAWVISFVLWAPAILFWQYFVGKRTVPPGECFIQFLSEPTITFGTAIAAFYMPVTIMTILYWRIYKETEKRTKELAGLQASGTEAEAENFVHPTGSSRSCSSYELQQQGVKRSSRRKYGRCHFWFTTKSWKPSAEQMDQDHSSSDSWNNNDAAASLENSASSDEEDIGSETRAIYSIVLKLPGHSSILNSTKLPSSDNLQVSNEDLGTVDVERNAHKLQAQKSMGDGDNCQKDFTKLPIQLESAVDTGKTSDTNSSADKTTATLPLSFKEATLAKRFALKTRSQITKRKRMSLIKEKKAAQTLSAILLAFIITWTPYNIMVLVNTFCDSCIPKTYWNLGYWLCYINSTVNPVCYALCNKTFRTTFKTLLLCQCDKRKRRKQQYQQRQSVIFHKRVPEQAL

`CCC1=NCC2(CN3CCC2CC3)O1` (racemic) [AF123, 2-Ethyl spiro(1,3 oxazoline 5,3')quinuclidine]: the Mortality no. in [1] (50 mg/kg i.v.) is reported as 0/5; in [1] (100 mg/kg i.v.), 5/5; in data set [1] (200 mg/kg i.v.), 5/5; in data set [1] (200 mg/kg p.os) it was 0/5; in data set [1] (400 mg/kg p.os) it was 5/5. Further, the Mortality time was 1 min in data set [1] (100 mg/kg i.v.), “immed” in data set [1] (200 mg/kg i.v.), 3 min in [1] (200 mg/kg p.os) and 3 min in [1] (400 mg/kg p.os). The “Convulsive seizure (Con)” value is listed as 5/5 in [1] (100 mg/kg i.v., animals affected/treated) and 5/5 in data set [1] (setting [13]). In addition, the “Tremors (Tre)” value in data set [1] (200 mg/kg p.os, animals affected/treated) is reported as 4/5; in [1] (setting [13]), 5/5. Moreover, the “Respiratory distress (Res)” value in data set [1] (setting [13]) is on record as 5/5. Also, in data set [2] (KH cerebellum (3H-QNB) : KH cortex (3H-PZ)), the “RATIOS c:a” value turned out to be 3.0. Further, the “% H” value in data set [2] and in [3] (Table 4) was 100% in each case. For the same compound, the Ki in [2] worked out at 1300 nM; in data set [3] (3H-QNB-Binding KH (c), Table 4), 3900 nM. Also, in data set [4], the “decomposition in aqueous solution” value is on record as “same pattern of decomposition”.
As for `CC1OC2(CS1)CN1CCC2CC1` (stereo not drawn) [AF102B, cis-2-methylspiro(1,3-oxathiolane-5',3)quinuclidine, reference compound], the “% H1” value in data set [5] was 100%. In addition, the “%H (% of high affinity state)” value was 26% in data set [6] (with Cu++ pretreatment (100 µM, 30 minutes)); 26±5% in data set [6] (with Cu++ pretreatment (100 µM, 30 minutes), listed as 4); 0% in data set [6] (without pretreatment). Also, in data set [7] (applied topically by microdrops), the “slow AHP (Ca++-dependent K+ conductance)” value was “block the slow AHP”. The depolarization result in data set [7] (applied topically by microdrops (AF150: 100 µM)) was “not shown in the case of AF102B”. Moreover, the Ki in [8] (+G (0.1 mM GppNHp), read-out: KH) is 700 to 1000 nM; in [8] (+G (0.1 mM GppNHp), read-out: KL), 700 to 1000 nM; in [8] (-G (without GppNHp), read-out: KH), 700 to 1000 nM; in [8] (-G, read-out: KL), 700 to 1000 nM; in data set [2], 1000 nM; in [3] (3H-QNB-Binding KH2 (c), Table 5), 5900 nM. The compound further gave a Ki in data set [3] (3H-QNB-Binding KH (c), Table 4) of 6000 nM. The “block of oxotremorine-M-induced phosphoinositide hydrolysis” value in [9] is recorded as “completely blocked”. The “PI (phosphoinositides hydrolysis)” value in data set [9] (SK-N-SH m3, tested at 1mM) is reported as “-”; in [10], “-”; in data set [11] (CHO m1, tested at 1mM), “+”. Moreover, the inhibition at 1000 µM in [9] (SK-N-SH, read-out: inhibition of the oxotremorine-M signal) was 34%. Further, the “stimulation of phosphoinositide hydrolysis” value in data set [9] (even at 1 mM) is given as “failed to stimulate phosphoinositide hydrolysis”. Besides, the “PI, % of carbachol effect” value in data set [11] (CHO m1) turned out to be 20%. Besides, the “effective concentration which induces the effect” value is 30^b µM in data set [11] (CHO m1, PI hydrolysis, footnote b) and 0.1^b µM in [12] (PC12 m4, AC activity, footnote b). Further, the “% H” value in data set [2] and in data set [3] (Table 4) was 100% throughout. Further, the “AC, % of carbachol effect” value in data set [12] (PC12 m4) is reported as 40%. Besides, the “AC (adenylate cyclase activity)” value in data set [12] (PC12 m4, tested at 1mM) is “+”. Further, the “% H2” value in data set [3] (Table 5) turned out to be 100%.
